Measured values as given in ChEMBL document CHEMBL1133416, “Solid phase synthesis of diamides as potential bone resorption inhibitors” (Bioorg Med Chem Lett, 2000).

Key:
Adenosinetriphosphatase [1] = target: T1, Adenosinetriphosphatase (Gallus gallus, UniProt Q9I8A2); test: Compound was tested for inhibition of osteoclast vacuolar ATPase derived from chicken medullary bone
[2] = Compound was tested at 9 uM for inhibition of V-ATPase mediated proton transport in membrane vesicles derived from chicken medullary bone
Adenosinetriphosphatase [3] = target: T1, Adenosinetriphosphatase; test: Compound was tested for in vitro inhibition of osteoclast vacuolar acid pump; type: functional

T1 sequence (Q9I8A2 whole entry): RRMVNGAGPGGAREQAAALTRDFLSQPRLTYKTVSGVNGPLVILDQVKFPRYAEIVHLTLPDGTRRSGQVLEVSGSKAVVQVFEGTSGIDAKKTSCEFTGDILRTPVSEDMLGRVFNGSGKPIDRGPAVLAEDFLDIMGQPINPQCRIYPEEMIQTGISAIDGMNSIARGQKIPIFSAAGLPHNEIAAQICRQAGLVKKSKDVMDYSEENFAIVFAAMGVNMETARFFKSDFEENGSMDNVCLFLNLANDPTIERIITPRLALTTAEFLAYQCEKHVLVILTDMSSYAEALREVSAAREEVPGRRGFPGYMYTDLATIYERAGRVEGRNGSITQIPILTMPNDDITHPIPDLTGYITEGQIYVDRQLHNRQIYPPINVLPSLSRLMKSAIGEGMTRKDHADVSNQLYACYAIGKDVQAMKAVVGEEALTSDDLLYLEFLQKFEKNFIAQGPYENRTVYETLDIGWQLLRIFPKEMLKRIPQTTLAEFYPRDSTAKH

| inhibition [2] | IC50 (Adenosinetriphosphatase [3]) | SMILES | IC50 (Adenosinetriphosphatase [1]) |
| --- | --- | --- | --- |
| – | – | CO/C1=C\C(C)=C\[C@@H](C)[C@@H](O)[C@@H](C)C/C(C)=C/C=C/[C@H](OC)[C@@H]([C@@H](C)[C@@H](O)[C@H](C)[C@@]2(O)C[C@@H](O)[C@H](C)[C@@H](C(C)C)O2)OC1=O [BAFILOMYCIN A1] | 30 nM |
| 51% | 1500 nM | CC1(C)CC(NC(=O)/C=C/C=C/C(=O)Nc2ccc(Cl)c(Cl)c2)CC(C)(C)N1 | – |
| – | 4900 nM | CC1(C)CC(NC(=O)c2cccc(CC(=O)Nc3ccc(Cl)c(Cl)c3)c2)CC(C)(C)N1 | – |
| – | – | CO/C(=C\C=C\c1cc2cc(Cl)c(Cl)cc2[nH]1)C(=O)NC1CC(C)(C)NC(C)(C)C1 | 49 nM |
